Experimental data reported in US6630135B1, “Use of sustained release antibiotic compositions in ophthalmic surgical procedures” (Alcon Laboratories, Inc., priority 1993, dated 2003).
≈ marks a conversion by molar mass, not a printed value. Read-outs that look alike come from different tables or passages of the source.

What was measured:
[1] = system: P. aeruginosa; assay: MIC90 against multiple strains of P. aeruginosa; assay type: cell-based
Text: (§1) The concentration of antibiotic utilized in the compositions of the present invention will vary depending on the intended use of the compositions (i.e., sterilization of the surgical field or prevention of post-surgical infections), and the relative antimicrobial activity of the specific antibiotic selected. The antimicrobial activity of antibiotics is generally expressed as the minimum concentration required to inhibit the growth of a specified pathogen. The concentration is also referred to as the “minimum inhibitory concentration” or “MIC”. The term “MIC90” refers to the minimum concentration of antibiotic required to inhibit the growth of ninety percent (90%) of a population of multiple strains of a microorganism. The concentration of an antibiotic required to totally kill a specified population of bacteria or other pathogens is referred to as the “minimum bactericidal concentration” or “MBC”. The activity of antibiotics against Pseudomonas aeruginosa is particularly important in the present invention, because ophthalmic infections involving Pseudomonas aeruginosa represent an extremely serious condition which may ultimately result in the loss of the affected eye.

[2] = system: Strep. pneumoniae; assay: MIC90 against Strep. pneumoniae; assay type: cell-based
Text: as §1

[3] = system: Staph. aureus; assay: MIC90 against multiple strains of Staph. aureus; assay type: cell-based
Text: as §1

[4] = system: Pseudomonas aeruginosa (i.e., Strain 4N3422); assay: Minimum inhibitory concentration against Pseudomonas aeruginosa Strain 4N3422; assay type: cell-based
Text: The concentration of antibiotic utilized in the compositions of the present invention will vary depending on the intended use of the compositions (i.e., sterilization of the surgical field or prevention of post-surgical infections), and the relative antimicrobial activity of the specific antibiotic selected. The antimicrobial activity of antibiotics is generally expressed as the minimum concentration required to inhibit the growth of a specified pathogen. The concentration is also referred to as the “minimum inhibitory concentration” or “MIC”. The term “MIC90” refers to the minimum concentration of antibiotic required to inhibit the growth of ninety percent (90%) of a population of multiple strains of a microorganism. The concentration of an antibiotic required to totally kill a specified population of bacteria or other pathogens is referred to as the “minimum bactericidal concentration” or “MBC”. The minimum inhibitory concentrations of some of the preferred antibiotics of the present invention, relative to a specific strain of Pseudomonas aeruginosa (i.e., Strain 4N3422), are presented in the following table: […]

[5] = system: Staph. epidermidis; assay: MIC90 against Staph. epidermidis; assay type: cell-based
Text: as §1

[6] = system: Hemo. influenzae; assay: MIC90 against Hemo. influenzae; assay type: cell-based
Text: as §1

[7] = Ocular tissue drug concentration after topical dosing of rabbit eyes (HPLC); assay type: in vivo; conditions: New Zealand albino, 30 microliters, normal eyes, after 30 minutes
Procedure: The following formulations were tested: The route of administration was topical. The rabbits received 30 microliters of either the gel or solution formulations in both eyes. At the end of the study, the aqueous humor and cornea were collected and assayed by high performance liquid chromatography to determine the amount of drug present.

[8] = humans, one hour after administration, cited from earlier work
[9] = rabbits, subconjunctival injection; cited from earlier work
[10] = Pseudomonas aeruginosa, read-out: MIC 90
[11] = Streptococcus pneumoniae, read-out: MIC 90
[12] = Staphylococcus aureus, read-out: MIC 90
[13] = Staphylococcus epidermidis, read-out: MIC 90
[14] = Haemophilus influenzae, read-out: MIC 90

Compound: NC[C@H]1O[C@H](O[C@H]2[C@H](O)[C@@H](O[C@H]3O[C@H](CO)[C@@H](O)[C@H](N)[C@H]3O)[C@H](N)C[C@@H]2N)[C@H](N)C[C@@H]1O [Tobramycin]
- MIC90 [1, 10]: 20 µg/mL (≈ 42.8 µM)
- MIC90 [2, 11]: 34.5 µg/mL (≈ 73.8 µM)
- MIC90 [3, 12]: 6.3 µg/mL (≈ 13.5 µM)
- MIC ([4]; read-out: MIC): > 8 µg/mL
- MIC90 [5, 13]: 56 µg/mL (≈ 120 µM)
- MIC90 [6, 14]: 13.4 µg/mL (≈ 28.7 µM)

Compound: CC1(C)S[C@@H]2[C@H](NC(=O)[C@H](C(=O)O)c3ccsc3)C(=O)N2[C@H]1C(=O)O [Ticarcillin]
- MIC ([4]; read-out: MIC): 32 µg/mL (≈ 83.2 µM)

Compound: CO/N=C(\C(=O)N[C@@H]1C(=O)N2C(C(=O)O)=C(COC(C)=O)CS[C@H]12)c1csc(N)n1 [Cefotaxime]
- MIC ([4]; read-out: MIC): 32 µg/mL (≈ 70.3 µM)

Compound: O=C(O)c1cn(C2CC2)c2cc(N3CCNCC3)c(F)cc2c1=O [Ciprofloxacin]
- MIC90 [1, 10]: 0.5 µg/mL (≈ 1.51 µM)
- concentration at 30 min ([7]; aqueous humor, read-out: drug levels in aqueous humor): 280 ng/g
- concentration at 30 min ([7]; cornea, read-out: drug levels in cornea): 10600 ng/g
- MIC90 [2, 11]: 2 µg/mL (≈ 6.04 µM)
- MIC90 [3, 12]: 0.5 µg/mL (≈ 1.51 µM)
- MIC ([4]; read-out: MIC): < 0.125 µg/mL
- maximum aqueous humor concentration ([8]; IV injection (200 mg)): 0.16 µg/mL
- maximum aqueous humor concentration ([8]; oral dosage (1 g)): 0.33 µg/mL
- MIC90 [5, 13]: 0.4 µg/mL (≈ 1.21 µM)
- MIC90 [6, 14]: 0.015 µg/mL (≈ 0.0453 µM)

Compound: CCN1CCN(C(=O)N[C@@H](C(=O)N[C@@H]2C(=O)N3[C@@H]2SC(C)(C)[C@@H]3C(=O)O)c2ccccc2)C(=O)C1=O [Piperacillin]
- MIC ([4]; read-out: MIC): < 8 µg/mL

Compound: C[C@@H](O)[C@H]1C(=O)N2C(C(=O)O)=C(SCCN=CN)C[C@H]12 [Imipenem]
- MIC ([4]; read-out: MIC): 1 µg/mL (≈ 3.34 µM)

Compound: CO[C@@]1(NC(=O)Cc2cccs2)C(=O)N2C(C(=O)O)=C(COC(N)=O)CS[C@@H]21 [Cefoxitin]
- MIC ([4]; read-out: MIC): > 32 µg/mL

Compound: CCn1cc(C(=O)O)c(=O)c2cc(F)c(N3CCNCC3)cc21 [Norfloxacin]
- MIC ([4]; read-out: MIC): < 0.5 µg/mL

Compound: NCC[C@H](O)C(=O)N[C@@H]1C[C@H](N)[C@@H](O[C@H]2O[C@H](CN)[C@@H](O)[C@H](O)[C@H]2O)[C@H](O)[C@H]1O[C@H]1O[C@H](CO)[C@@H](O)[C@H](N)[C@H]1O [Amikacin]
- MIC ([4]; read-out: MIC): 8 µg/mL (≈ 13.7 µM)

Compound: CC(C)(O/N=C(\C(=O)N[C@@H]1C(=O)N2C(C(=O)[O-])=C(C[n+]3ccccc3)CS[C@H]12)c1csc(N)n1)C(=O)O [Ceftazidime]
- MIC ([4]; read-out: MIC): 1 µg/mL (≈ 1.83 µM)

Compound: Gentamicin
- MIC90 [1]: 8.0 µg/mL
- MIC90 [2]: 50.0 µg/mL
- MIC90 [3]: 12.5 µg/mL
- MIC [4]: >8 µg/mL
- MIC90 [5]: 12.5 µg/mL
- MIC90 [6]: 0.8 µg/mL
- maximum concentration attained in the aqueous humor [9]: 8.8 µg/g
